# Test results as given in ChEMBL document CHEMBL2010722, “Structure-activity relationship study of beta-carboline derivatives as haspin kinase inhibitors” (Bioorg Med Chem Lett, 2012).
# Assays:
# [1] = molecular target: BDNF/NT-3 growth factors receptor (Homo sapiens) (UniProt Q16620); experiment: Inhibition of TRKB at 10 uM
# [2] = molecular target: Tyrosine-protein kinase receptor TYRO3 (Homo sapiens) (UniProt Q06418); experiment: Inhibition of TYRO3 at 10 uM
# [3] = molecular target: Dual specificity tyrosine-phosphorylation-regulated kinase 1A (Homo sapiens) (UniProt Q13627); conditions: 10 uM
# [4] = test system: Serine/threonine-protein kinase B-raf (Homo sapiens), P15056 [V600E]; experiment: Inhibition of BRAF V600E mutant at 10 uM
# [5] = molecular target: Receptor-type tyrosine-protein kinase FLT3 (Homo sapiens) (UniProt P36888); experiment: Inhibition of FLT3 at 10 uM
# [6] = test system: Hepatocyte growth factor receptor (Homo sapiens), P08581 [Y1235D]; experiment: Inhibition of MET Y1235D mutant at 10 uM
# [7] = molecular target: Serine/threonine-protein kinase PLK1 (Homo sapiens) (UniProt P53350); experiment: Inhibition of PLK1 at 10 uM
# [8] = molecular target: PAS domain-containing serine/threonine-protein kinase (Homo sapiens) (UniProt Q96RG2); experiment: Inhibition of PASK at 10 uM
# [9] = molecular target: Ephrin type-A receptor 8 (Homo sapiens) (UniProt P29322); experiment: Inhibition of EPHA8 at 10 uM
# [10] = test system: Epidermal growth factor receptor (Homo sapiens), P00533 [L858R,T790M]; experiment: Inhibition of EGFR T790M/L858R mutant at 10 uM; format: protein assay
# [11] = molecular target: Serine/threonine-protein kinase Nek2 (Homo sapiens) (UniProt P51955); experiment: Inhibition of NEK2 at 10 uM
# [12] = molecular target: Dual specificity mitogen-activated protein kinase kinase 5 (Homo sapiens) (UniProt Q13163); experiment: Inhibition of MAP2K5 at 10 uM
# [13] = molecular target: Casein kinase I isoform gamma-3 (Homo sapiens) (UniProt Q9Y6M4); experiment: Inhibition of CK1g3 at 10 uM
# [14] = molecular target: Ribosomal protein S6 kinase alpha-1 (Homo sapiens) (UniProt Q15418); experiment: Inhibition of RSK1 N-terminal at 10 uM
# [15] = molecular target: Serine/threonine-protein kinase B-raf (Homo sapiens) (UniProt P15056); experiment: Inhibition of BRAF at 10 uM
# [16] = molecular target: cGMP-dependent protein kinase 2 (Homo sapiens) (UniProt Q13237); experiment: Inhibition of CGK2 at 10 uM
# [17] = molecular target: Serine/threonine-protein kinase DCLK2 (Homo sapiens) (UniProt Q8N568); experiment: Inhibition of DCAMKL2 at 10 uM
# [18] = molecular target: Dual specificity tyrosine-phosphorylation-regulated kinase 3 (Homo sapiens) (UniProt O43781); experiment: Inhibition of DYRK3 at 10 uM
# [19] = molecular target: Casein kinase I isoform epsilon (Homo sapiens) (UniProt P49674); experiment: Inhibition of CK1e at 10 uM
# [20] = test system: ALK tyrosine kinase receptor (Homo sapiens), Q9UM73 [F1174L]; experiment: Inhibition of ALK F1174L mutant at 10 uM
# [21] = molecular target: RAF proto-oncogene serine/threonine-protein kinase (Homo sapiens) (UniProt P04049); experiment: Inhibition of RAF1 at 10 uM
# [22] = molecular target: Calcium/calmodulin-dependent protein kinase type II subunit delta (Homo sapiens) (UniProt Q13557); experiment: Inhibition of CaMK2d at 10 uM
# [23] = molecular target: Tyrosine-protein kinase TXK (Homo sapiens) (UniProt P42681); experiment: Inhibition of TXK at 10 uM
# [24] = molecular target: Serine/threonine-protein kinase TBK1 (Homo sapiens) (UniProt Q9UHD2); experiment: Inhibition of TBK1 at 10 uM
# [25] = molecular target: Ribosomal protein S6 kinase alpha-4 (Homo sapiens) (UniProt O75676); experiment: Inhibition of MSK2 N-terminal at 10 uM
# [26] = molecular target: Mitogen-activated protein kinase 10 (Homo sapiens) (UniProt P53779); experiment: Inhibition of JNK3 at 10 uM
# [27] = molecular target: Testis-specific serine/threonine-protein kinase 2 (Homo sapiens) (UniProt Q96PF2); experiment: Inhibition of TSSK2 at 10 uM
# [28] = molecular target: T1, Dual specificity tyrosine-phosphorylation-regulated kinase 2 (Homo sapiens, UniProt Q92630)
# T1 sequence (Q92630 whole entry): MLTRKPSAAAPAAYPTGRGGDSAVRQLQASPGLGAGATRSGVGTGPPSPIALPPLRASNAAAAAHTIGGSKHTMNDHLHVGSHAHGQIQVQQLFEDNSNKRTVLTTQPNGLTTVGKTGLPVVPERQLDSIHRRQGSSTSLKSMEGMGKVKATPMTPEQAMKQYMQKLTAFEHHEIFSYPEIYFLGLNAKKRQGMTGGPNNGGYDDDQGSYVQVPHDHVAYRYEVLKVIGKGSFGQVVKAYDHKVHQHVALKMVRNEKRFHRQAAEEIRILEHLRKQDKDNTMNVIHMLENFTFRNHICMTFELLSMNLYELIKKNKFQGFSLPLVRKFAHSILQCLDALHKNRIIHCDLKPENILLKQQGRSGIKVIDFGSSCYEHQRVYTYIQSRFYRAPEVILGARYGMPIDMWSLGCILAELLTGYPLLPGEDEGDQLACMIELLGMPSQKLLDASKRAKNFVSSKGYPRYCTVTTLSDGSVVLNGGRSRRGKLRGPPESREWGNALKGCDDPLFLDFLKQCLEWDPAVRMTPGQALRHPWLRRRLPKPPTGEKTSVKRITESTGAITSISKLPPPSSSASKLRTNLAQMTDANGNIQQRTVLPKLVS
# [29] = molecular target: Dual specificity protein kinase CLK1 (Homo sapiens) (UniProt P49759); conditions: 10 uM
# [30] = molecular target: Misshapen-like kinase 1 (Homo sapiens) (UniProt Q8N4C8); experiment: Inhibition of MINK at 10 uM
# [31] = molecular target: PI3-kinase p110-alpha/p85-alpha (Homo sapiens) (UniProt P27986+P42336); experiment: Inhibition of PIK3CA/PIK3R1 at 10 uM; format: protein-complex assay
# [32] = molecular target: Protein kinase C zeta type (Homo sapiens) (UniProt Q05513); experiment: Inhibition of PKCzeta at 10 uM
# [33] = molecular target: CDK3/cyclin E (Homo sapiens) (UniProt P24864+O96020+Q00526); experiment: Inhibition of CDK3-Cyclin E1 at 10 uM; format: protein-complex assay
# [34] = molecular target: Protein kinase C epsilon type (Homo sapiens) (UniProt Q02156); experiment: Inhibition of PKCepsilon at 10 uM
# [35] = molecular target: Mitogen-activated protein kinase 9 (Homo sapiens) (UniProt P45984); experiment: Inhibition of JNK2 at 10 uM
# [36] = molecular target: Epithelial discoidin domain-containing receptor 1 (Homo sapiens) (UniProt Q08345); experiment: Inhibition of DDR1 at 10 uM
# [37] = molecular target: Angiopoietin-1 receptor (Homo sapiens) (UniProt Q02763); experiment: Inhibition of TIE2 at 10 uM
# BDNF/NT-3 growth factors receptor (Homo sapiens), sequence (Q16620 32-822 limits assumed): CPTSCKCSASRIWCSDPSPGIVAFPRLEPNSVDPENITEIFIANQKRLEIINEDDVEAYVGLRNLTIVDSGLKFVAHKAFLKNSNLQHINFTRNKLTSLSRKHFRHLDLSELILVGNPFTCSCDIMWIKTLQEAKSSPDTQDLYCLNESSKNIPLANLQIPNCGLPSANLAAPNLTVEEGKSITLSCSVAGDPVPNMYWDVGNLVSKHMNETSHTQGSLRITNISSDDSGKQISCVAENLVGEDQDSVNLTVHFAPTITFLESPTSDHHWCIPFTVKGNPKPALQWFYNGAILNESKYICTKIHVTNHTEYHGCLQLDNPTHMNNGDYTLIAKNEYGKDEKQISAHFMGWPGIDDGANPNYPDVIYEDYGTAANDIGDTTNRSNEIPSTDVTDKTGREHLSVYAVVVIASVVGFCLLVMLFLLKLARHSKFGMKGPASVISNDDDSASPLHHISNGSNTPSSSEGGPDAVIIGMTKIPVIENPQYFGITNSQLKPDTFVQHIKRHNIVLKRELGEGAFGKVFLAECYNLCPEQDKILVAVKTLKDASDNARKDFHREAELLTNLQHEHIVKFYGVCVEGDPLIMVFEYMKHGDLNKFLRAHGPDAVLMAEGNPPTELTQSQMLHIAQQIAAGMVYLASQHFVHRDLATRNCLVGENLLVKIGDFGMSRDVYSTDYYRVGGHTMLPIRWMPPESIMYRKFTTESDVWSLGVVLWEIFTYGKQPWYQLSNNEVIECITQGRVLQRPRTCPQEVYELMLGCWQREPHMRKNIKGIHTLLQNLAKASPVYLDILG
# Serine/threonine-protein kinase B-raf (Homo sapiens), sequence (P15056 whole entry): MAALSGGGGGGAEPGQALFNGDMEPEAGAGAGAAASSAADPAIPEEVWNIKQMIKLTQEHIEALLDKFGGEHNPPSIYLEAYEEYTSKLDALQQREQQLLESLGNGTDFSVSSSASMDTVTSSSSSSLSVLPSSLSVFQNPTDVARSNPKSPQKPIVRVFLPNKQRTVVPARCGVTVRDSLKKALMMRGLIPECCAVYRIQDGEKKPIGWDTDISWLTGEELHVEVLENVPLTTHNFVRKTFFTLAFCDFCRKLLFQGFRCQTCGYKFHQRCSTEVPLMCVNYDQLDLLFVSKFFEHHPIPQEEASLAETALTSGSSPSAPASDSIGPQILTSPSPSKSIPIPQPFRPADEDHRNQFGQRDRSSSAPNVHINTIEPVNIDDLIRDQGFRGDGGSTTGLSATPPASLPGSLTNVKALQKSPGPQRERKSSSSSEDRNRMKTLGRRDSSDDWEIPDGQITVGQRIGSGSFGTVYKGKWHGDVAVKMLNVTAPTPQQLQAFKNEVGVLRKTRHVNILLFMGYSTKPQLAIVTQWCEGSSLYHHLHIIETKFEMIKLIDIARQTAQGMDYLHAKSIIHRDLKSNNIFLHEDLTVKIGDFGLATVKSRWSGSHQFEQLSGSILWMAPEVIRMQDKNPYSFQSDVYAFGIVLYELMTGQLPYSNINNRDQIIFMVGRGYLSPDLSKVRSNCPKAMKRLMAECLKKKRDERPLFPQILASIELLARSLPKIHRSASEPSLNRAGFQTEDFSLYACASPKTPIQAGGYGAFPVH
# Epithelial discoidin domain-containing receptor 1 (Homo sapiens), sequence (Q08345 whole entry, the tested form may be a part): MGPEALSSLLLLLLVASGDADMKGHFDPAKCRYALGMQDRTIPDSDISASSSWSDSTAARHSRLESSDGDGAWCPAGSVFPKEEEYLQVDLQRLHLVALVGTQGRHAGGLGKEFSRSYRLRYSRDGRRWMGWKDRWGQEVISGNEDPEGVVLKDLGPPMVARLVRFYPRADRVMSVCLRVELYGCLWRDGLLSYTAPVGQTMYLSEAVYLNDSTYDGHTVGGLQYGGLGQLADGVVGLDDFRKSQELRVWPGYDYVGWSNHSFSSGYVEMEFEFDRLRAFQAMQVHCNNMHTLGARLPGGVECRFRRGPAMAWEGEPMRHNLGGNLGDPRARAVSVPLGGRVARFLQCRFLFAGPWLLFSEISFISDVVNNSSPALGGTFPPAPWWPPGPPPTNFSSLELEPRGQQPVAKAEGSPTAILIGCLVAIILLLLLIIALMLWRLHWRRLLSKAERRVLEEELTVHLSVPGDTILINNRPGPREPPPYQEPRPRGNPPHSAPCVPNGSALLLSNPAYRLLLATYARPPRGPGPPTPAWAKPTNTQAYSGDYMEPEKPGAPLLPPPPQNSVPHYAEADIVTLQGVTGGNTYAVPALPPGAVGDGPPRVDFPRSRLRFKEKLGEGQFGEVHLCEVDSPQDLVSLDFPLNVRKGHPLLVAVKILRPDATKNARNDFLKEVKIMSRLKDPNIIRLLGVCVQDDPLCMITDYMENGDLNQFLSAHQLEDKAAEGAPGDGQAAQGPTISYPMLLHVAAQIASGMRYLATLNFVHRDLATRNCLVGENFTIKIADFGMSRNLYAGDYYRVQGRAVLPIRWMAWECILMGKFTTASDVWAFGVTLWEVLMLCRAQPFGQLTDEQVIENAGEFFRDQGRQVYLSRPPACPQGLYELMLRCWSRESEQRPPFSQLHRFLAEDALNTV
# Protein kinase C zeta type (Homo sapiens), sequence (Q05513 whole entry): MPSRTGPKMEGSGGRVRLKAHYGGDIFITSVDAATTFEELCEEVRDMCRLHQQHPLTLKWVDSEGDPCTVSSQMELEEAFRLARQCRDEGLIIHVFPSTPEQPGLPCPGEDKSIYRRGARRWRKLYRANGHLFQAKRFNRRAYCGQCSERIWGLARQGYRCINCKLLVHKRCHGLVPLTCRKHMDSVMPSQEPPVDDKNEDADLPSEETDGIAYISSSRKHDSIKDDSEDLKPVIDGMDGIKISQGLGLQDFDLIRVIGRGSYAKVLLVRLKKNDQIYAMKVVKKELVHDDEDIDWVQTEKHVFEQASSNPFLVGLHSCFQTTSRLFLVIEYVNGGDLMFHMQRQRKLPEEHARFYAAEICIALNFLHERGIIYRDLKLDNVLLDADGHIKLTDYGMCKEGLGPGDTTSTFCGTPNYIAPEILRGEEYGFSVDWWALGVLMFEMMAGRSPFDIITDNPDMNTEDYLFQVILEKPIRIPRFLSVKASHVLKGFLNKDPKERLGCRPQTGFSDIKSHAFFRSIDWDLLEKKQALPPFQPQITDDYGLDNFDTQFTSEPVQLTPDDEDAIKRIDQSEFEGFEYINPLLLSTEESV
# Dual specificity tyrosine-phosphorylation-regulated kinase 3 (Homo sapiens), sequence (O43781 whole entry, canonical isoform): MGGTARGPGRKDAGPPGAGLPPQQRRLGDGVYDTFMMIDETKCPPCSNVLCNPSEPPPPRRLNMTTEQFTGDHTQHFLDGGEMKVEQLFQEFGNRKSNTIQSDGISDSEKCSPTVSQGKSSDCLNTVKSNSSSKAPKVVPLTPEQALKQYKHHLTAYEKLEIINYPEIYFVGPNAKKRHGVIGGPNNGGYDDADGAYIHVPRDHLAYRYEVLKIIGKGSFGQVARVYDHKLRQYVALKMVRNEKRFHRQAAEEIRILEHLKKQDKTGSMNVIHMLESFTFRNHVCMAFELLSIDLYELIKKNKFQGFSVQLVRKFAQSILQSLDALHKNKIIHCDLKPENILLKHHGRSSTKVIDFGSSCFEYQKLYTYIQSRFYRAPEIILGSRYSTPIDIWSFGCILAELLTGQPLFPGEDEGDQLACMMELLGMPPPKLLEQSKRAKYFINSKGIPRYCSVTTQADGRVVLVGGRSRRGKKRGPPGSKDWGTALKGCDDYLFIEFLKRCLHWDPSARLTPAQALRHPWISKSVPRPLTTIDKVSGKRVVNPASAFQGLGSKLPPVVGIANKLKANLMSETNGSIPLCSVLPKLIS
# Mitogen-activated protein kinase 10 (Homo sapiens), sequence (P53779 whole entry): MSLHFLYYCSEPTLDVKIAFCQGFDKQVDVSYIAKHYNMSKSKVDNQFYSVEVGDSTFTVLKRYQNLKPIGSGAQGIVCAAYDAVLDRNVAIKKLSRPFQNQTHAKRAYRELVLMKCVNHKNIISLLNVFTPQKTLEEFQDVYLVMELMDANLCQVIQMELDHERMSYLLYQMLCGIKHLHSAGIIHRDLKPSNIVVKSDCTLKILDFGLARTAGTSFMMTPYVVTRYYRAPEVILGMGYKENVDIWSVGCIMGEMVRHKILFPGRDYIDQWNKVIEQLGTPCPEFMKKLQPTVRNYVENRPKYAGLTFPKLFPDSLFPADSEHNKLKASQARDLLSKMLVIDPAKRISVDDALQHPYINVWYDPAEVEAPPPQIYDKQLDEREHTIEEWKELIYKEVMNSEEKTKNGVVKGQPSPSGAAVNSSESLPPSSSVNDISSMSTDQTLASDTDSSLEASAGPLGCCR
# Ribosomal protein S6 kinase alpha-4 (Homo sapiens), sequence (O75676 whole entry, looked up): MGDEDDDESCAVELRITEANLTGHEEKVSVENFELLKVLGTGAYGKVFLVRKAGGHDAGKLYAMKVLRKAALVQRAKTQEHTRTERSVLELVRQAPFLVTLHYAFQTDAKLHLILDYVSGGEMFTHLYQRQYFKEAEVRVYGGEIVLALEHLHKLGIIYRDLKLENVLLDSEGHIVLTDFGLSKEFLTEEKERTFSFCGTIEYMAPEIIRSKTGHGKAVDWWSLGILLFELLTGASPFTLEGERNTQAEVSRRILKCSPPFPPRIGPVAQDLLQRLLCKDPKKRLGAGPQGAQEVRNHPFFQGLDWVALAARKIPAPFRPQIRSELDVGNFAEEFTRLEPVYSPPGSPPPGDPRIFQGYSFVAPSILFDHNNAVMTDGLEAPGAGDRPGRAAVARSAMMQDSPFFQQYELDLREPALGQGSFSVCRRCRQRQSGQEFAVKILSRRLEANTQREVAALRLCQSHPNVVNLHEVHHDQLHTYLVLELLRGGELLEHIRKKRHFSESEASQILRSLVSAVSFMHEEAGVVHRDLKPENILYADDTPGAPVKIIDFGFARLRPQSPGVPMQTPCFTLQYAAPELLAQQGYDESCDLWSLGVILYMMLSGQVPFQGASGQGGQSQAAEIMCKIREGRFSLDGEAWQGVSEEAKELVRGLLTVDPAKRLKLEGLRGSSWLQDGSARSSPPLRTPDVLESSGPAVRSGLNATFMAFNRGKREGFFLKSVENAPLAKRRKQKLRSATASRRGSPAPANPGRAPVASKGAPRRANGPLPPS
# Serine/threonine-protein kinase B-raf (Homo sapiens), P15056 [V600E], sequence (P15056 whole entry V600E): as the sequence (P15056 whole entry) above, with V600E counted along it
structure (smiles),measurement,setting,value
COc1ccc2c3ccnc(C(F)(F)F)c3n(CCCCN)c2c1,inhibition,[1],7%
same,inhibition,[2],16%
same,inhibition,[3],100%
same,inhibition,[4],8%
same,inhibition,[5],74%
same,inhibition,[6],2%
same,inhibition,[7],0%
same,inhibition,[8],92%
same,inhibition,[9],0%
same,inhibition,[10],4%
same,inhibition,[11],1%
same,inhibition,[12],1%
same,inhibition,[13],53%
same,inhibition,[14],27%
same,inhibition,[15],0%
same,inhibition,[16],91%
same,inhibition,[17],4%
same,inhibition,[18],97%
same,inhibition,[19],41%
same,inhibition,[20],9%
same,inhibition,[21],0%
same,inhibition,[22],91%
same,inhibition,[23],8%
same,inhibition,[24],4%
same,inhibition,[25],16%
same,inhibition,[26],17%
same,inhibition,[27],5%
same,IC50,[28],15 µM
same,inhibition,[29],100%
same,inhibition,[30],17%
same,inhibition,[31],13%
same,inhibition,[32],35%
same,inhibition,[33],22%
same,inhibition,[34],72%
same,inhibition,[35],8%
same,inhibition,[36],8%
same,inhibition,[37],0%
